# Assay results as given in US20240327385A1, “SUBSTITUTED PIPERIDINE COMPOUNDS AS RENIN INHIBITORS” (priority 2023, published 2024).
# Molecular target: human recombinant renin (Homo sapiens (Human), UniProt P00797)
# Experiment: human renin activity inhibition (SensoLyte 520 Renin Assay Kit Fluorimetric)
# Format: biochemical
# Details: 30 min preincubation at 37° C., fluorescence at 530 nm after 15 min at 37° C., read-out: IC50 (nM), inhibitory effect on human renin activity
# Description: The exemplary compounds of the disclosure were tested for their inhibitory effects on human renin activity, using a commercially available renin assay kit (SensoLyte® 520 Renin Assay Kit Fluorimetric), following the manufacture's manual.
# Briefly, human recombinant renin (from the kit) was incubated with the compound of the disclosure or buffer for 30 min at 37° C. before substrate addition. Fluorescence intensity was measured at 530 nm after an incubation of 15 min at 37° C. Data was analyzed by Prism and fitted into a sigmodal curve for IC50 calculation.
# human recombinant renin, sequence (P00797 67-406): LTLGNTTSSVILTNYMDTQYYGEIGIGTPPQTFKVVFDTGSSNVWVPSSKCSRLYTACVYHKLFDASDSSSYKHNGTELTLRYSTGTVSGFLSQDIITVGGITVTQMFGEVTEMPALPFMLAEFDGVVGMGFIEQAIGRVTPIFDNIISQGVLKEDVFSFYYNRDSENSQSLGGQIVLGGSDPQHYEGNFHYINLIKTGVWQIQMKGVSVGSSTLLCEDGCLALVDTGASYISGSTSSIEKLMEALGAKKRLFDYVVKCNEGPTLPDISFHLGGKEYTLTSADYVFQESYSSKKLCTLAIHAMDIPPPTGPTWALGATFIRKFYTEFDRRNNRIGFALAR
row,Compound,IC50
1,"CO[C@H]1C[C@H](Nc2cc(C3CC3)cnc2C(=O)N(CC2CC2)[C@@H]2CNCC(c3nnco3)C2)C1 (stereo in doubt) [Compound 44, (3S)—{N-cyclopropylmethyl, N-{5-cyclopropyl-3-[3-(trans-methoxy)cyclobutyl]amino}pyridine-2-carbonyl}amino-(5R)-(1,3,4-oxadiazol-2-yl)-piperidine]",< 10 nM
2,"CO[C@H]1C[C@H](Nc2cc(C3CC3)cnc2C(=O)N(CC(C)C)[C@@H]2CNC[C@H](C(=O)N3CC(F)C3)C2)C1 [Compound 10, (3S)—{N-(2-methylpropyl), N-{5-cyclopropyl-3-[3-(trans-methoxy)cyclobutyl]amino}pyridine-2-carbonyl}amino-(5R)-(3-fluoroazetidine-N-carbonyl)-piperidine]",1.8 nM
3,"CO[C@H]1C[C@H](Nc2cc(C3CC3)cnc2C(=O)N(CC(C)C)C2CNCC(C(=O)N3CCC(F)(F)C3)C2)C1 (stereo partly drawn) [Compound 11, (3S)—{N-(2-methylpropyl), N-{5-cyclopropyl-3-[3-(trans-methoxy)cyclobutyl]amino}pyridine-2-carbonyl}amino-(5R)-(3,3-difluoropyrrolidine-N-carbonyl)-piperidine]",1.2 nM
4,"CO[C@H]1C[C@H](Nc2cc(C3CC3)cnc2C(=O)N(CC(C)C)C2CNCC(C(=O)N3CCC(F)(F)CC3)C2)C1 (stereo partly drawn) [Compound 12, (3S)—{N-(2-methylpropyl), N-{5-cyclopropyl-3-[3-(trans-methoxy)cyclobutyl]amino}pyridine-2-carbonyl}amino-(5R)-(4,4-difluoropiperidine-N-carbonyl)-piperidine]",1.6 nM
5,"CO[C@H]1C[C@H](Nc2cc(C3CC3)cnc2C(=O)N(CC(C)C)C2CNCC(C(=O)N3CCC(OC(F)(F)F)CC3)C2)C1 (stereo partly drawn) [Compound 13, (3S)—{N-(2-methylpropyl), N-{5-cyclopropyl-3-[3-(trans-methoxy)cyclobutyl]amino}pyridine-2-carbonyl}amino-(5R)-(4-trifluoromethoxypiperidine-N-carbonyl)-piperidine]",3.8 nM
6,"CO[C@H]1C[C@H](Nc2cc(C3CC3)cnc2C(=O)N(CC(C)C)C2CNCC(C(=O)N3CCOC[C@H]3C)C2)C1 (stereo partly drawn) [Compound 14, (3S)—{N-(2-methylpropyl), N-{5-cyclopropyl-3-[3-(trans-methoxy)cyclobutyl]amino}pyridine-2-carbonyl}amino-(5R)-[(3R)-methylmorpholine-N-carbonyl]-piperidine]",1.2 nM
7,"CO[C@H]1C[C@H](Nc2cc(C3CC3)cnc2C(=O)N(CC(C)C)C2CNCC(C(=O)N3CCOC[C@@H]3C)C2)C1 (stereo partly drawn) [Compound 15, (3S)—{N-(2-methylpropyl), N-{5-cyclopropyl-3-[3-(trans-methoxy)cyclobutyl]amino}pyridine-2-carbonyl}amino-(5R)-[(3S)-methylmorpholine-N-carbonyl]-piperidine]",1 nM
8,"CO[C@H]1C[C@H](Nc2nc(C(C)(C)C)ncc2C(=O)N(CC(C)C)C2CNCC(C(=O)N3CCOCC3)C2)C1 (stereo partly drawn) [Compound 17, (3S)—{N-(2-methylpropyl), N-{2-tert-butyl-3-[3-(trans-methoxy)cyclobutyl]amino}pyrimidine-5-carbonyl}amino-(5R)-(morpholine-N-carbonyl)-piperidine]",1.5 nM
9,"CO[C@H]1C[C@H](Nc2cc(C3CC3)cnc2C(=O)N(CC(C)C)C2CNCC(C(=O)N3CCOCC3)C2)C1 (stereo partly drawn) [Compound 18, (3S)—{N-(2-methylpropyl), N-{5-cyclopropyl-3-[3-(trans-methoxy)cyclobutyl]amino}pyridine-2-carbonyl}amino-(5R)-(morpholine-N-carbonyl)-piperidine]",1.2 nM
10,"CO[C@H]1C[C@@H](Nc2cc(C3CC3)cnc2C(=O)N(CC(C)C)C2CNCC(C(=O)N3CCOCC3)C2)C1 (stereo partly drawn) [Compound 19, (3S)—{N-(2-methylpropyl), N-{5-cyclopropyl-3-[3-(cis-methoxy)cyclobutyl]amino}pyridine-2-carbonyl}amino-(5R)-(morpholine-N-carbonyl)-piperidine]",1.5 nM
11,"CC(C)CN(C(=O)c1ncc(C2CC2)cc1NC1CCC1)C1CNCC(C(=O)N2CCOCC2)C1 [Compound 20, (3S)—[N-(2-methylpropyl), N-(5-cyclopropyl-3-cyclobutylamino)pyridine-2-carbonyl]amino-(5R)-(morpholine-N-carbonyl)-piperidine]",1.9 nM
12,"CO[C@H]1C[C@H](Nc2cc(C3CC3)cnc2C(=O)N(CC(C)C)[C@H]2CCCNC2)C1 [Compound 26, (3S)—{N-(2-methylpropyl), N-{5-cyclopropyl-3-[3-(trans-methoxy)cyclobutyl]amino}pyridine-2-carbonyl}amino-piperidine]",< 20 nM
13,"CC[C@H]1COCCN1C(=O)[C@H]1CNC[C@@H](N(CC(C)C)C(=O)c2ncc(C3CC3)cc2N[C@H]2C[C@H](OC)C2)C1 [Compound 27, (3S)—{N-(2-methylpropyl), N-{5-cyclopropyl-3-[3-(trans-methoxy)cyclobutyl]amino}pyridine-2-carbonyl}amino-(5R)-[(3S)-ethylmorpholine-N-carbonyl]-piperidine]",< 250 nM

# Results, then the compound that gave them:
row,IC50,Compound
1,< 10 nM,"CO[C@H]1C[C@H](Nc2cc(C3CC3)cnc2C(=O)N(CC(C)C)[C@@H]2CNCC(c3nnc(C4COC4)o3)C2)C1 (stereo in doubt) [Compound 34, (3S)—{N-(2-methylpropyl), N-{5-cyclopropyl-3-[3-(trans-methoxy)cyclobutyl]amino}pyridine-2-carbonyl}amino-(5R)-[5-(oxetan-3-yl)-1,3,4-oxadiazol-2-yl]-piperidine]"
2,< 20 nM,"Cc1nnc(C2CNC[C@@H](N(CC(C)C)C(=O)c3ncc(C4CC4)cc3NC3COC3)C2)o1 (stereo in doubt) [Compound 37, (3S)—{N-(2-methylpropyl), N-[5-cyclopropyl-3-(oxetan-3-yl)amino]pyridine-2-carbonyl}amino-(5R)-(5-methyl-1,3,4-oxadiazol-2-yl)-piperidine]"
3,< 50 nM,"Cc1noc(C2CNC[C@@H](N(CC(C)C)C(=O)c3ncc(C4CC4)cc3NC3COC3)C2)n1 (stereo in doubt) [Compound 38, (3S)—{N-(2-methylpropyl), N-[5-cyclopropyl-3-(oxetan-3-yl)amino]pyridine-2-carbonyl}amino-(5R)-(3-methyl-1,2,4-oxadiazol-5-yl)-piperidine]"
4,1.4 nM,"CC(C)CN(C(=O)c1ncc(C2CC2)cc1NC1CC1)C1CNCC(C(=O)N2CCOC[C@@H]2C)C1 (stereo partly drawn) [Compound 21, (3S)—[N-(2-methylpropyl), N-(5-cyclopropyl-3-cyclopropylamino)pyridine-2-carbonyl]amino-(5R)-[(3S)-methylmorpholine-N-carbonyl]-piperidine]"
5,1.3 nM,"CO[C@H]1C[C@H](Nc2cc(C3CC3)cnc2C(=O)N(CC(C)C)C2CNC[C@H](c3nnc(C)o3)C2)C1 (stereo partly drawn) [Compound 22, (3S)—{N-(2-methylpropyl), N-{5-cyclopropyl-3-[3-(trans-methoxy)cyclobutyl]amino}pyridine-2-carbonyl}amino-(5R)-(5-methyl-1,3,4-oxadiazol-2-yl)-piperidine]"
6,1.2 nM,"CO[C@H]1C[C@H](Nc2cc(C3CC3)cnc2C(=O)N(CC(C)C)C2CNC[C@H](c3nnc(C4CC4)o3)C2)C1 (stereo partly drawn) [Compound 23, (3S)—{N-(2-methylpropyl), N-{5-cyclopropyl-3-[3-(trans-methoxy)cyclobutyl]amino}pyridine-2-carbonyl}amino-(5R)-(5-cyclopropyl-1,3,4-oxadiazol-2-yl)-piperidine]"
7,1 nM,"CO[C@H]1C[C@H](Nc2cc(C3CC3)cnc2C(=O)N(CC(C)C)C2CNC[C@H](c3nnc(C4CC(F)(F)C4)o3)C2)C1 (stereo partly drawn) [Compound 24, (3S)—{N-(2-methylpropyl), N-{5-cyclopropyl-3-[3-(trans-methoxy)cyclobutyl]amino}pyridine-2-carbonyl}amino-(5R)-(3,3-diflurorocyclobutyl-1,3,4-oxadiazol-2-yl)-piperidine]"
8,< 10 nM,"CC(C)CN(C(=O)c1ncc(C2CC2)cc1NC1CC1)[C@@H]1CNC[C@H](C(=O)N2CCOCC2)C1 [Compound 25, (3S)—[N-(2-methylpropyl), N-(5-cyclopropyl-3-cyclopropylamino)pyridine-2-carbonyl]amino-(5R)-(morpholine-N-carbonyl)-piperidine]"
9,< 10 nM,"CO[C@H]1C[C@H](Nc2cc(C3CC3)cnc2C(=O)N(CC(C)C)[C@@H]2CNC[C@H](c3noc(C)n3)C2)C1 [Compound 28, (3S)—{N-(2-methylpropyl), N-{5-cyclopropyl-3-[3-(trans-methoxy)cyclobutyl]amino}pyridine-2-carbonyl}amino-(5R)-(5-methyl-1,2,4-oxadiazol-3-yl)-piperidine]"
10,< 10 nM,"CO[C@H]1C[C@H](Nc2cc(C3CC3)cnc2C(=O)N(CC(C)C)[C@@H]2CNC[C@H](c3nc(C)no3)C2)C1 [Compound 29, (3S)—{N-(2-methylpropyl), N-{5-cyclopropyl-3-[3-(trans-methoxy)cyclobutyl]amino}pyridine-2-carbonyl}amino-(5R)-(3-methyl-1,2,4-oxadiazol-5-yl)-piperidine]"
11,< 10 nM,CC(C)CN(C(=O)c1ncc(C2CC2)cc1NC1COC1)[C@@H]1CNC[C@H](C(=O)N2CCOCC2)C1 [Compound 30]
12,< 10 nM,"CO[C@H]1C[C@H](Nc2cccnc2C(=O)N(CC(C)C)[C@@H]2CNCC(c3nnc(C4CC4)o3)C2)C1 (stereo partly drawn) [Compound 31, (3S)—{N-(2-methylpropyl), N-[3-(3-trans-methoxy)cyclobutyl]amino-pyridine-2-carbonyl}amino-(5R)-(5-cyclopropyl-1,3,4-oxadiazol-2-yl)-piperidine]"
13,< 10 nM,"CC(C)CN(C(=O)c1ncc(C2CC2)cc1NC1COC1)[C@@H]1CNCC(c2nnc(C3CC3)o2)C1 (stereo partly drawn) [Compound 32, (3S)—{N-(2-methylpropyl), N-[5-cyclopropyl-3-(oxetan-3-yl)amino]pyridine-2-carbonyl}amino-(5R)-(5-cyclopropyl-1,3,4-oxadiazol-2-yl)-piperidine]"
